Test results taken from ChEMBL document CHEMBL3885861, “Open TG-GATES”.

Species: Rattus norvegicus
Test: Open TG-GATES - Regimen: Single
Type: toxicity, organism-based, Sprague-Dawley
Set-up: regimen Single, gender Male, age 6 weeks
Conditions: in vivo, iv, route intravenous injection; for Ca / Cl / DBIL / GLC / IP / K / LDH / Na / PL / RALB / TBIL / TC / TG / TP / gamma-GTP / A/G / ALP / ALT / AST / BUN / CRE: tissue Plasma; for APTT / Fbg / Hb / Ht / MCH / MCHC / MCV / PT / Plat / RBC / Ret / WBC: tissue Blood; for KIDNEY_L / KIDNEY_R / KIDNEY_TOTAL: tissue Kidney; for LIVER: tissue Liver
[1] = 3 mg/kg, 24 h, dose level Middle
[2] = 10 mg/kg, 24 h, dose level High

Structure (SMILES): C[C@@H]1C[C@@H]([C@H](O)CC2CC(=O)NC(=O)C2)C(=O)[C@@H](C)C1 [CYCLOHEXIMIDE]
- Ca [1]: 9.8 mg/dL
- Cl [1]: 107.6 meq/L
- DBIL [1]: 0.004 mg/dL
- GLC [1]: 177 mg/dL
- IP [1]: 7.3 mg/dL
- K [1]: 4.4 meq/L
- LDH [1]: 231 IU/L
- Na [1]: 138.8 meq/L
- PL [1]: 74 mg/dL
- RALB [1]: 2.4 g/dL
- TBIL [1]: 0.028 mg/dL
- TC [1]: 38.4 mg/dL
- TG [1]: 80 mg/dL
- TP [1]: 4.2 g/dL
- gamma-GTP [1]: 1.6 IU/L
- TERMINAL_BW (10 mg/kg, 3 h, dose level High): 216.7 g
- APTT (10 mg/kg, 3 h, dose level High): 24.3 s
- Fbg (10 mg/kg, 3 h, dose level High): 301 mg/dL
- Hb (10 mg/kg, 3 h, dose level High): 15.2 g/dL
- Ht (10 mg/kg, 3 h, dose level High): 47.2%
- MCH (10 mg/kg, 3 h, dose level High): 21 pg
- MCHC (10 mg/kg, 3 h, dose level High): 32.3%
- MCV (10 mg/kg, 3 h, dose level High): 65.2 fL
- PT (10 mg/kg, 3 h, dose level High): 18.5 s
- Plat (10 mg/kg, 3 h, dose level High): 133.4 x10_4/uL
- RBC (10 mg/kg, 3 h, dose level High): 726.4 x10_4/ul
- Ret (10 mg/kg, 3 h, dose level High): 9.6%
- WBC (10 mg/kg, 3 h, dose level High): 375 x10_2/uL
- KIDNEY_L (10 mg/kg, 3 h, dose level High): 1 g
- KIDNEY_R (10 mg/kg, 3 h, dose level High): 1 g
- KIDNEY_TOTAL (10 mg/kg, 3 h, dose level High): 2 g
- LIVER (10 mg/kg, 3 h, dose level High): 9.2 g
- A/G (10 mg/kg, 3 h, dose level High): 1.3
- ALP (10 mg/kg, 3 h, dose level High): 1467 IU/L
- ALT (10 mg/kg, 3 h, dose level High): 74 IU/L
- AST (10 mg/kg, 3 h, dose level High): 314.6 IU/L
- BUN (10 mg/kg, 3 h, dose level High): 41.4 mg/dL
- CRE (10 mg/kg, 3 h, dose level High): 0.1 mg/dL
- Ca (10 mg/kg, 3 h, dose level High): 9.8 mg/dL
- Cl (10 mg/kg, 3 h, dose level High): 109 meq/L
- DBIL (10 mg/kg, 3 h, dose level High): 0.006 mg/dL
- GLC (10 mg/kg, 3 h, dose level High): 334.2 mg/dL
- IP (10 mg/kg, 3 h, dose level High): 13.4 mg/dL
- K (10 mg/kg, 3 h, dose level High): 5.1 meq/L
- LDH (10 mg/kg, 3 h, dose level High): 1625.2 IU/L
- Na (10 mg/kg, 3 h, dose level High): 140 meq/L
- PL (10 mg/kg, 3 h, dose level High): 82.4 mg/dL
- RALB (10 mg/kg, 3 h, dose level High): 3 g/dL
- TBIL (10 mg/kg, 3 h, dose level High): 0.014 mg/dL
- TC (10 mg/kg, 3 h, dose level High): 63.8 mg/dL
- TG (10 mg/kg, 3 h, dose level High): 20 mg/dL
- TP (10 mg/kg, 3 h, dose level High): 5.3 g/dL
- gamma-GTP (10 mg/kg, 3 h, dose level High): 3.2 IU/L
- TERMINAL_BW (10 mg/kg, 6 h, dose level High): 213.8 g
- APTT (10 mg/kg, 6 h, dose level High): 31.7 s
- Fbg (10 mg/kg, 6 h, dose level High): 270.2 mg/dL
- Hb (10 mg/kg, 6 h, dose level High): 17.7 g/dL
- Ht (10 mg/kg, 6 h, dose level High): 54.8%
- MCH (10 mg/kg, 6 h, dose level High): 21.6 pg
- MCHC (10 mg/kg, 6 h, dose level High): 32.3%
- MCV (10 mg/kg, 6 h, dose level High): 66.8 fL
- PT (10 mg/kg, 6 h, dose level High): 29.8 s
- Plat (10 mg/kg, 6 h, dose level High): 131.6 x10_4/uL
- RBC (10 mg/kg, 6 h, dose level High): 818.8 x10_4/ul
- Ret (10 mg/kg, 6 h, dose level High): 8.7%
- WBC (10 mg/kg, 6 h, dose level High): 396.9 x10_2/uL
- KIDNEY_L (10 mg/kg, 6 h, dose level High): 1 g
- KIDNEY_R (10 mg/kg, 6 h, dose level High): 1 g
- KIDNEY_TOTAL (10 mg/kg, 6 h, dose level High): 2 g
- LIVER (10 mg/kg, 6 h, dose level High): 7.9 g
- A/G (10 mg/kg, 6 h, dose level High): 1.1
- ALP (10 mg/kg, 6 h, dose level High): 1518.4 IU/L
- ALT (10 mg/kg, 6 h, dose level High): 76.2 IU/L
- AST (10 mg/kg, 6 h, dose level High): 315.8 IU/L
- BUN (10 mg/kg, 6 h, dose level High): 69.4 mg/dL
- CRE (10 mg/kg, 6 h, dose level High): 0.2 mg/dL
- Ca (10 mg/kg, 6 h, dose level High): 7.2 mg/dL
- Cl (10 mg/kg, 6 h, dose level High): 108.8 meq/L
- DBIL (10 mg/kg, 6 h, dose level High): 0.002 mg/dL
- GLC (10 mg/kg, 6 h, dose level High): 250.6 mg/dL
- IP (10 mg/kg, 6 h, dose level High): 16.5 mg/dL
- K (10 mg/kg, 6 h, dose level High): 6 meq/L
- LDH (10 mg/kg, 6 h, dose level High): 1124 IU/L
- Na (10 mg/kg, 6 h, dose level High): 138.8 meq/L
- PL (10 mg/kg, 6 h, dose level High): 65 mg/dL
- RALB (10 mg/kg, 6 h, dose level High): 2.8 g/dL
- TBIL (10 mg/kg, 6 h, dose level High): 0.002 mg/dL
- TC (10 mg/kg, 6 h, dose level High): 39 mg/dL
- TG (10 mg/kg, 6 h, dose level High): 20.2 mg/dL
- TP (10 mg/kg, 6 h, dose level High): 5.3 g/dL
- gamma-GTP (10 mg/kg, 6 h, dose level High): 3.8 IU/L
- TERMINAL_BW (10 mg/kg, 9 h, dose level High): 206.3 g
- APTT (10 mg/kg, 9 h, dose level High): 47.2 s
- Fbg (10 mg/kg, 9 h, dose level High): 228.4 mg/dL
- Hb (10 mg/kg, 9 h, dose level High): 18.2 g/dL
- Ht (10 mg/kg, 9 h, dose level High): 56.4%
- MCH (10 mg/kg, 9 h, dose level High): 21.7 pg
- MCHC (10 mg/kg, 9 h, dose level High): 32.3%
- MCV (10 mg/kg, 9 h, dose level High): 67.4 fL
- PT (10 mg/kg, 9 h, dose level High): 40.1 s
- Plat (10 mg/kg, 9 h, dose level High): 112.8 x10_4/uL
- RBC (10 mg/kg, 9 h, dose level High): 836.4 x10_4/ul
- Ret (10 mg/kg, 9 h, dose level High): 8.9%
- WBC (10 mg/kg, 9 h, dose level High): 386.2 x10_2/uL
- KIDNEY_L (10 mg/kg, 9 h, dose level High): 1.1 g
- KIDNEY_R (10 mg/kg, 9 h, dose level High): 1.1 g
- KIDNEY_TOTAL (10 mg/kg, 9 h, dose level High): 2.1 g
- LIVER (10 mg/kg, 9 h, dose level High): 7.9 g
- A/G (10 mg/kg, 9 h, dose level High): 1.4
- ALP (10 mg/kg, 9 h, dose level High): 1345.4 IU/L
- ALT (10 mg/kg, 9 h, dose level High): 87.8 IU/L
- AST (10 mg/kg, 9 h, dose level High): 291.8 IU/L
- BUN (10 mg/kg, 9 h, dose level High): 94.4 mg/dL
- CRE (10 mg/kg, 9 h, dose level High): 0.3 mg/dL
- Ca (10 mg/kg, 9 h, dose level High): 6.6 mg/dL
- Cl (10 mg/kg, 9 h, dose level High): 109 meq/L
- DBIL (10 mg/kg, 9 h, dose level High): 0.0125 mg/dL
- GLC (10 mg/kg, 9 h, dose level High): 215.2 mg/dL
- IP (10 mg/kg, 9 h, dose level High): 17.4 mg/dL
- K (10 mg/kg, 9 h, dose level High): 6.6 meq/L
- LDH (10 mg/kg, 9 h, dose level High): 1399 IU/L
- Na (10 mg/kg, 9 h, dose level High): 136 meq/L
- PL (10 mg/kg, 9 h, dose level High): 69.6 mg/dL
- RALB (10 mg/kg, 9 h, dose level High): 2.9 g/dL
- TBIL (10 mg/kg, 9 h, dose level High): 0.01 mg/dL
- TC (10 mg/kg, 9 h, dose level High): 34.4 mg/dL
- TG (10 mg/kg, 9 h, dose level High): 61.4 mg/dL
- TP (10 mg/kg, 9 h, dose level High): 5.2 g/dL
- gamma-GTP (10 mg/kg, 9 h, dose level High): 3 IU/L
- TERMINAL_BW [2]: 198.6 g
- APTT [2]: 70.4 s
- Fbg [2]: 149.5 mg/dL
- Hb [2]: 16.4 g/dL
- Ht [2]: 49.4%
- MCH [2]: 20.9 pg
- MCHC [2]: 33.3%
- MCV [2]: 62.8 fL
- PT [2]: 35.1 s
- Plat [2]: 81.8 x10_4/uL
- RBC [2]: 784.5 x10_4/ul
- Ret [2]: 7.3%
- WBC [2]: 413.2 x10_2/uL
- KIDNEY_L [2]: 1 g
- KIDNEY_R [2]: 1 g
- KIDNEY_TOTAL [2]: 2 g
- LIVER [2]: 8 g
- A/G [2]: 1.3
- ALP [2]: 903.5 IU/L
- ALT [2]: 57.5 IU/L
- AST [2]: 192 IU/L
- BUN [2]: 106 mg/dL
- CRE [2]: 0.3 mg/dL
- Ca [2]: 7 mg/dL
- Cl [2]: 112 meq/L
- DBIL [2]: 0.02 mg/dL
- GLC [2]: 134 mg/dL
- IP [2]: 13.4 mg/dL
- K [2]: 5.3 meq/L
- LDH [2]: 1196.5 IU/L
- Na [2]: 141.5 meq/L
- PL [2]: 80 mg/dL
- RALB [2]: 2.5 g/dL
- TBIL [2]: 0.045 mg/dL
- TC [2]: 59 mg/dL
- TG [2]: 66.5 mg/dL
- TP [2]: 4.5 g/dL
- gamma-GTP [2]: 4 IU/L
